Where “and” joins values, the source holds several entries; their conditions need not be identical. Equal values may be shown once. Inconclusive results and toxic doses are left out. No stated cut-off is given here; in the data, active means T/C of 150% or more; inactive means T/C below 125%.
Tested on: L1210 leukemia ip in BDF1 mice, survival T/C
Test: NCI In Vivo Anticancer Drug Screen. Data for tumor model L1210 Leukemia (intraperitoneal) in B6D2F1 (BDF1) mice
Conditions: endpoint: mean survival time, higher = longer survival
Outline: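 Mice bearing the transplanted tumor received compound or vehicle. Survival of the treated group was divided by that of the vehicle-treated control group to give the ratio.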

[1] = dose: 100.0 mg/kg/injection, schedule: Q01DX001 (ip), vehicle: saline
[2] = dose: 200.0 mg/kg/injection, schedule: Q01DX001 (ip), vehicle: saline
[3] = dose: 400.0 mg/kg/injection, schedule: Q01DX001 (ip), vehicle: saline
[4] = dose: 25.0 mg/kg/injection, schedule: Q01DX009 (ip), vehicle: saline
[5] = dose: 50.0 mg/kg/injection, schedule: Q01DX009 (ip), vehicle: saline
[6] = dose: 100.0 mg/kg/injection, schedule: Q01DX009 (ip), vehicle: saline
[7] = dose: 100.0 mg/kg/injection, schedule: Q04DX003 (ip), vehicle: Klucel (hydroxypropylcellulose) (HPC)
[8] = dose: 200.0 mg/kg/injection, schedule: Q04DX003 (ip), vehicle: Klucel (hydroxypropylcellulose) (HPC)
[9] = dose: 400.0 mg/kg/injection, schedule: Q04DX003 (ip), vehicle: Klucel (hydroxypropylcellulose) (HPC)
[10] = dose: 50.0 mg/kg/injection, schedule: Q01DX009 (ip), vehicle: Klucel (hydroxypropylcellulose) (HPC)
[11] = dose: 100.0 mg/kg/injection, schedule: Q01DX009 (ip), vehicle: Klucel (hydroxypropylcellulose) (HPC)

Measured: T/C

CNC(=O)Oc1cccc2c1C(=O)OC2=O
inactive: dose: 100.0 mg/kg/injection, schedule: Q01DX001 (ip), vehicle: other 93 % of control | dose: 100.0 mg/kg/injection, schedule: Q04DX003 (ip), vehicle: other 94 % of control | dose: 200.0 mg/kg/injection, schedule: Q01DX001 (ip), vehicle: other 90 % of control | dose: 200.0 mg/kg/injection, schedule: Q04DX003 (ip), vehicle: other 94 % of control | dose: 400.0 mg/kg/injection, schedule: Q04DX003 (ip), vehicle: other 98 % of control

O=C(NNC1CCN(Cc2ccccc2)CC1)c1ccccc1
inactive: dose: 10.0 mg/kg/injection, schedule: Q01DX009 (ip), vehicle: saline with Tween-80 95 % of control | dose: 10.0 mg/kg/injection, schedule: Q04DX003 (ip), vehicle: saline with Tween-80 100 % of control | dose: 20.0 mg/kg/injection, schedule: Q01DX009 (ip), vehicle: saline with Tween-80 103 % of control | dose: 20.0 mg/kg/injection, schedule: Q04DX003 (ip), vehicle: saline with Tween-80 102 % of control | dose: 40.0 mg/kg/injection, schedule: Q01DX009 (ip), vehicle: saline with Tween-80 93 % of control | dose: 40.0 mg/kg/injection, schedule: Q04DX003 (ip), vehicle: saline with Tween-80 106 % of control

O=C1OC2CCCCC1CC2 (configuration not stated)
inactive: [1] 108 % of control | [2] 110 % of control | [3] 87 % of control

CCN(CC)CC(=O)NCC(CCN1CCCCC1)(CC(C)C)c1cccc2ccccc12 (configuration not stated)
inactive: [4] 102 % of control | [5] 105 % of control | [6] 114 % of control

COC(=O)c1cc(S(=O)(=O)c2cc(C)c(O)c(C(=O)OC)c2)cc(C)c1O
inactive: dose: 100.0 mg/kg/injection, schedule: Q04DX002 (ip), vehicle: carboxymethylcellulose (CMC) 92 % of control | dose: 200.0 mg/kg/injection, schedule: Q04DX002 (ip), vehicle: carboxymethylcellulose (CMC) 95 % of control | dose: 400.0 mg/kg/injection, schedule: Q04DX002 (ip), vehicle: carboxymethylcellulose (CMC) 95 % of control

CC(=N\N)/C(C)=N/N
inactive: dose: 6.25 mg/kg/injection, schedule: Q01DX009 (ip), vehicle: saline with Tween-80 102 % of control | dose: 12.5 mg/kg/injection, schedule: Q01DX009 (ip), vehicle: saline with Tween-80 100 % of control | dose: 25.0 mg/kg/injection, schedule: Q01DX009 (ip), vehicle: saline with Tween-80 107 % of control

NC(=S)c1cccnc1
inactive: dose: 50.0 mg/kg/injection, schedule: Q01DX003 (ip), vehicle: Klucel (hydroxypropylcellulose) (HPC) 94 % of control | dose: 100.0 mg/kg/injection, schedule: Q01DX003 (ip), vehicle: Klucel (hydroxypropylcellulose) (HPC) 94 % of control | [7] 109 % of control | dose: 200.0 mg/kg/injection, schedule: Q01DX003 (ip), vehicle: Klucel (hydroxypropylcellulose) (HPC) 97 % of control | [8] 111 % of control | [9] 109 % of control

CC1(C)CCCC(Br)C1=O (configuration not stated)
inactive: [10] 97 % of control | [11] 104 % of control

COc1cc2c(cc1OC)C(CC1=C(c3ccccc3)CN3CCc4cc(OC)c(OC)cc4C3C1)NCC2 (configuration not stated)
inactive: dose: 4.0 mg/kg/injection, schedule: Q04DX003 (ip), vehicle: water 106 % of control and 102 % of control | dose: 8.0 mg/kg/injection, schedule: Q04DX003 (ip), vehicle: water 98 % of control and 101 % of control | dose: 16.0 mg/kg/injection, schedule: Q04DX003 (ip), vehicle: water 106 % of control and 103 % of control | dose: 32.0 mg/kg/injection, schedule: Q04DX003 (ip), vehicle: water 102 % of control and 96 % of control | dose: 64.0 mg/kg/injection, schedule: Q04DX003 (ip), vehicle: water 96 % of control and 95 % of control | dose: 75.0 mg/kg/injection, schedule: Q01DX001 (ip), vehicle: saline 101 % of control and 97 % of control | dose: 150.0 mg/kg/injection, schedule: Q01DX001 (ip), vehicle: saline 94 % of control and 92 % of control

C[N+](C)(C)CCOC(=O)CCC(=O)OCC[N+](C)(C)C
inactive: dose: 1.56 mg/kg/injection, schedule: Q01DX009 (ip), vehicle: saline 94 % of control | dose: 3.12 mg/kg/injection, schedule: Q01DX009 (ip), vehicle: saline 94 % of control

CN=NC(C)(C)OC(C)=O
inactive: dose: 12.5 mg/kg/injection, schedule: Q01DX001 (ip), vehicle: saline 97 % of control | dose: 12.5 mg/kg/injection, schedule: Q01DX009 (ip), vehicle: saline 101 % of control | dose: 12.5 mg/kg/injection, schedule: Q04DX003 (ip), vehicle: saline 107 % of control | dose: 25.0 mg/kg/injection, schedule: Q01DX001 (ip), vehicle: saline 96 % of control | [4] 108 % of control | dose: 25.0 mg/kg/injection, schedule: Q04DX003 (ip), vehicle: saline 107 % of control | dose: 50.0 mg/kg/injection, schedule: Q01DX001 (ip), vehicle: saline 107 % of control | dose: 50.0 mg/kg/injection, schedule: Q04DX003 (ip), vehicle: saline 98 % of control

Cc1cccc(NC(=O)/C=C/c2ccccc2)n1
inactive: dose: 25.0 mg/kg/injection, schedule: Q01DX009 (ip), vehicle: Klucel (hydroxypropylcellulose) (HPC) 96 % of control | [10] 89 % of control | [11] 103 % of control and 91 % of control | dose: 100.0 mg/kg/injection, schedule: Q04DX002 (ip), vehicle: Klucel (hydroxypropylcellulose) (HPC) 91 % of control

NC(C=O)C(O)C(O)C(O)CO (configuration not stated)
inactive: [5] 94 % of control | [1] 104 % of control and 93 % of control | [6] 94 % of control | dose: 125.0 mg/kg/injection, schedule: Q01DX Z (ip), vehicle: carboxymethylcellulose (CMC) 100 % of control | [2] 105 % of control and 102 % of control | dose: 200.0 mg/kg/injection, schedule: Q01DX009 (ip), vehicle: saline 94 % of control | dose: 250.0 mg/kg/injection, schedule: Q01DX Z (ip), vehicle: carboxymethylcellulose (CMC) 94 % of control | [3] 102 % of control and 96 % of control | dose: 500.0 mg/kg/injection, schedule: Q01DX Z (ip), vehicle: carboxymethylcellulose (CMC) 96 % of control | dose: 750.0 mg/kg/injection, schedule: Q01DX009 (ip), vehicle: saline 100 % of control | dose: 1000.0 mg/kg/injection, schedule: Q01DX Z (ip), vehicle: carboxymethylcellulose (CMC) 95 % of control | dose: 1500.0 mg/kg/injection, schedule: Q01DX009 (ip), vehicle: saline 104 % of control | dose: 3000.0 mg/kg/injection, schedule: Q01DX009 (ip), vehicle: saline 104 % of control and 107 % of control | dose: 5000.0 mg/kg/injection, schedule: Q01DX009 (ip), vehicle: saline 98 % of control

CCOC(=O)C(C)SCC(CSC(C)C(=O)OCC)(CSC(C)C(=O)OCC)CSC(C)C(=O)OCC (configuration not stated)
inactive: dose: 100.0 mg/kg/injection, schedule: Q01DX001 (ip), vehicle: saline with Tween-80 104 % of control | dose: 200.0 mg/kg/injection, schedule: Q01DX001 (ip), vehicle: saline with Tween-80 107 % of control | dose: 400.0 mg/kg/injection, schedule: Q01DX001 (ip), vehicle: saline with Tween-80 104 % of control

CCOc1ccccc1C=C(C#N)C#N
inactive: dose: 100.0 mg/kg/injection, schedule: Q04DX002 (ip), vehicle: saline with Tween-80 100 % of control

Cc1cc(C)c2ccc(=O)[nH]c2n1
inactive: [1] 92 % of control | [2] 101 % of control | [3] 101 % of control

O=C1c2ccccc2C(=O)N1CC(O)COc1ccc(Cl)cc1 (configuration not stated)
inactive: [7] 92 % of control | [8] 92 % of control | [9] 91 % of control

NC(CC(O)c1ccccc1)c1ccccc1 (configuration not stated)
inactive: dose: 75.0 mg/kg/injection, schedule: Q01DX001 (ip), vehicle: carboxymethylcellulose (CMC) 96 % of control

From PubChem BioAssay AID248 (DTP/NCI, 2004)
